{"source": "patent US5786348A", "about": "“Methods for preparation and use of 1α,24(S)-dihydroxy vitamin D2” (priority 1995, dated 1998)", "key": {"[1]": {"assay": "Preventive treatment of bone mass loss in postmenopausal osteoporotic women", "type": "in vivo, human", "conditions": "at or above 1.0 μg/day, 24 to 36 months", "procedure": "A clinical study is conducted with postmenopausal osteoporotic out-patientshaving ages between 55 and 75 years. The study involves up to 120 patients randomly divided into three treatment groups and continues for 24 to 36 months. Two of the treatment groups receive constant dosages of 1α,24(S)-dihydroxy vitamin D2 (u.i.d.; two different dose levels at or above 1.0 μg/day) and the other group receives a matching placebo. All patients maintain a normal intake of dietary calcium (500 to 800 mg/day) and refrain from using calcium supplements. Efficacy is evaluated by pre-and post-treatment comparisons of the patient groups with regard to (a) total body calcium retention, and (b) radial and spinal bone mineral density as determined by dual-photon absorptiometry (DPA) or dual-energy x-ray absorptiometry (DEXA). Safety is evaluated by comparisons of urinary hydroxyproline excretion, serum and urine calcium levels, creatinine clearance, blood urea nitrogen, and other routine determinations."}, "[2]": {"target": "T1, vitamin D receptor (VDR) (Homo sapiens, UniProt P11473)", "T1 sequence (P11473 1-427)": "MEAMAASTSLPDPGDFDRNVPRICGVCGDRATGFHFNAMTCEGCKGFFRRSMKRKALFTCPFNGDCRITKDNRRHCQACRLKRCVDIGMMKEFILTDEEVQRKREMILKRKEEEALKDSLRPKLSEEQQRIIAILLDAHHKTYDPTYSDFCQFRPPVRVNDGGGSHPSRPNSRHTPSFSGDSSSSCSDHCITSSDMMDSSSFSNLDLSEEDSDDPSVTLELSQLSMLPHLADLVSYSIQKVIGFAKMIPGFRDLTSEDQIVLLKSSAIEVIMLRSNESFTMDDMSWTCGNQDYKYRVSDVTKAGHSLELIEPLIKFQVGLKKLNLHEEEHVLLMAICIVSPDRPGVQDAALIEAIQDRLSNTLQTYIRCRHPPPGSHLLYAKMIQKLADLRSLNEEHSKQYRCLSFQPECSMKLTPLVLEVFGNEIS", "assay": "Vitamin D-dependent transcriptional activation: growth hormone production in COS-1 cells co-transfected with VDR plasmid and VDRE-GH reporter", "type": "cell-based", "conditions": "for Total GH Production: averages of duplicate determinations", "procedure": "The biological activity in vitro of chemically synthesized 1α,24(S)-(OH)2 D2 and 1α,24(R)-(OH)2 D2 was measured using a vitamin D-dependent transcriptional activation model system in which a vitamin D receptor (VDR)-expressing plasmid pSG5-hVDR1/3and a plasmid p(CT4)^4 TKGH containing a Growth Hormone (GH)-gene, under the control of a vitamin D-responsive element (VDRE) were co-transfected into Green monkey kidney, COS-1 cells. DNA's for these two vectors were supplied by Dr. Mark Haussler, Department of Biochemistry, University of Arizona, Tucson, Ariz.\nTransfected cells were incubated with vitamin D metabolites and growth hormone production was measured."}, "[3]": {"target": "T2, vitamin D serum binding protein (DBP) (Rattus norvegicus, UniProt P04276)", "T2 sequence (P04276 17-476)": "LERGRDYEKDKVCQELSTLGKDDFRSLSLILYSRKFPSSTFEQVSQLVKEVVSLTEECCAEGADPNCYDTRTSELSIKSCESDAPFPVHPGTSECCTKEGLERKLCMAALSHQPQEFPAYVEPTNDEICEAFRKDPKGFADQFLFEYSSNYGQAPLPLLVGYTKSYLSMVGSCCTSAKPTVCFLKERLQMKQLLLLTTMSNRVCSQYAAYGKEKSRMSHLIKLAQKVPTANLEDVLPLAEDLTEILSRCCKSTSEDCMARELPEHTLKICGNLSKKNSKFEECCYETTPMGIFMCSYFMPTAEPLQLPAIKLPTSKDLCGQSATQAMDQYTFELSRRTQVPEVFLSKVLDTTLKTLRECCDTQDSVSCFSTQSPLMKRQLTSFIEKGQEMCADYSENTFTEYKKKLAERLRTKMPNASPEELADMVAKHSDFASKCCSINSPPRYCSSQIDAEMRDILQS", "assay": "Binding to vitamin D serum binding protein in vitamin D deficient rat serum", "source_text": "In addition, the weak binding by the DBP was indicative of more rapid clearance, allowing for low toxicity."}, "[4]": {"target": "T3, bovine thymus VDR (Bos taurus, UniProt Q28037)", "T3 construct": "commercially available kit of bovine thymus VDR; purchased Incstar (Stillwater, Minn.); host or cells: bovine thymus", "T3 sequence (Q28037 1-426)": "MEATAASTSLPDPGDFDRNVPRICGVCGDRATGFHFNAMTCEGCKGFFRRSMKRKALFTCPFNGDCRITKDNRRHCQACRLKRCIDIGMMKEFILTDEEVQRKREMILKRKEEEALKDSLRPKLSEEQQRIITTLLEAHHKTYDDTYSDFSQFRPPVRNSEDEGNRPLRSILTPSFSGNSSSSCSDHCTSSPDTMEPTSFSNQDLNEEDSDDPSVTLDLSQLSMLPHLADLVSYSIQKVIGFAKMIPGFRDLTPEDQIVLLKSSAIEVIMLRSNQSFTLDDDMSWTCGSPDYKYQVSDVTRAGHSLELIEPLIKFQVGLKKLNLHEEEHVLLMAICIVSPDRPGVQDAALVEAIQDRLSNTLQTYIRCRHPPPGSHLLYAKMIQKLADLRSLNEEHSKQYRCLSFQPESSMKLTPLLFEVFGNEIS", "assay": "Radioreceptor assay with bovine thymus VDR (Incstar), displacement of 3H-1α,25-(OH)2 D3", "type": "binding", "source_text": "Purified 1α,24(S)-(OH)2 D2 was quantitated by photodiode array spectrophotometry and assayed in the radioreceptor assay.\nThe purified 1α,24(R)-(OH)2 D2 and 1α,24(S)-(OH)2 D2 epimers were quantitated by ultraviolet spectroscopy. The concentration of 1α,24(R)-(OH)2 D2 required to produce the same displacement of ^3 H-1α,25-(OH)2 D3 tracer from the receptor was 20 to 30 times that required for 1α,24(S)-(OH)2 D2, as shown in FIG. 4."}, "[5]": {"conditions": "inducer molar concentration 5 × 10^-8"}, "[6]": {"conditions": "inducer molar concentration 5 × 10^-9"}, "[7]": {"conditions": "inducer molar concentration 5 × 10^-10"}}, "note": "Entries after “also recorded” stand apart in the source; their conditions may differ.", "data": [{"smiles": "C=C1/C(=C\\C=C2/CCC[C@]3(C)[C@@H]([C@H](C)/C=C/[C@@](C)(O)C(C)C)CC[C@@H]23)C[C@@H](O)C[C@@H]1O", "note": "[1α,24(S)-(OH)2 D2, 1α,24(S)-dihydroxy vitamin D2]", "values": [{"measurement": "Incidence of hypercalcemia or hypercalciuria or other metabolic disturbance", "setting": "[1]", "value": "insignificant incidence"}, {"measurement": "Total body calcium, radial and spinal bone densities relative to placebo", "setting": "[1]", "value": "significantly higher"}, {"measurement": "Activity in the transcriptional activation system relative to 1α,24(R)-(OH)2 D2", "setting": "[2]; compared with the 24(R) epimer", "value": "significantly more activity"}, {"measurement": "Net vitamin D-inducible GH-production", "setting": "[2]; [5]", "value": 1138, "unit": "ng/mL"}, {"measurement": "Total GH Production", "setting": "[2]; [5]", "value": 1182, "unit": "ng/mL"}, {"measurement": "Net vitamin D-inducible GH-production", "setting": "[2]; [6]", "value": 1306, "unit": "ng/mL"}, {"measurement": "Total GH Production", "setting": "[2]; [6]", "value": 1350, "unit": "ng/mL"}, {"measurement": "Net vitamin D-inducible GH-production", "setting": "[2]; [7]", "value": 381, "unit": "ng/mL"}, {"measurement": "Total GH Production", "setting": "[2]; [7]", "value": 425, "unit": "ng/mL"}, {"measurement": "Binding to the vitamin D serum binding protein relative to 1,25-(OH)2 D3", "setting": "[3]; compared with 1,25-(OH)2 D3", "value": "more weakly"}, {"measurement": "Binding affinity for the vitamin D serum binding protein", "setting": "[3]; in words", "value": "relatively poor binding affinity"}, {"measurement": "IC50", "setting": "[4]; bovine thymus VDR radioreceptor assay, read-out: Half-maximal binding (converted)", "value": "~0.35", "unit": "nM"}, {"measurement": "Affinity for VDR relative to 1α,25-(OH)2 D3", "setting": "[4]; compared with 1α,25-(OH)2 D3", "value": "two-fold less competitive; also recorded: two-fold lower affinity"}]}]}
